What is called IC50 is the midpoint of a concentration-inhibition curve. A higher IC50 goes with a need for much substance.

The values that follow come from patent US20240051955A1, “4-AMINO-3-(4-PHENOXYPHENYL)-1,3-DIHYDRO-2H-IMIDAZO[4,5-C]PYRIDIN-2-ONE DERIVATIVES AND SALTS THEREOF” (Genzyme Corporation, priority 2020, published 2024).

For assay [1], the target named is BTK(h) (Homo sapiens (Human), UniProt Q06187). The assay is described as follows: BTK(h) kinase activity study. The assay is classed as biochemical. The conditions noted are these: no pre-incubation of compound with enzyme/substrate mix prior to ATP addition. How it is done:
Compounds of Formula Ib, Formula II, and Formula III were tested against BTK(h) as described herein. All compounds tested were prepared to a working stock of 50× final assay concentration in 100% DMSO. Where appropriate, more concentrated stocks were diluted manually to 50× using 100% DMSO. Compounds, which were powders, were reconstituted to a 10 mM stock in 100% DMSO before further dilution to 50×.
The required volume of the 50× stock of test compound was added to the assay well before a reaction mix containing the enzyme and substrate was added. The reaction was initiated by the addition of ATP at the selected concentration. There was no pre-incubation of the compound with the enzyme/substrate mix prior to ATP addition.
Results are expressed as kinase activity remaining, as a percentage of the DMSO control. This is calculated using the following formula: […]
For IC50 determinations, data are analyzed using XLFit version 5.3 (ID Business Solutions). Sigmoidal dose-response (variable slope) curves are fit based on the mean result for each test concentration using non-linear regression analysis. Where the top and/or bottom of the curve fall >10% out with 100 and 0, respectively, either or both of these limits may be constrained at 100 and 0, provided that the QC criterion on R^2 is met.

In assay [2] the target is Dopamine transporter (h) (Homo sapiens (Human), UniProt Q01959). The assay is described as follows: Dopamine transporter (h) binding assay, [3H]BTCP. The note with it: Human recombinant (CHO cells); [3H]BTCP 4 nM; 120 min 4° C. The method, then: (§1) Compounds of Formula Ia, Formula Ib, Formula III, Formula IV, and Formula V were tested in various in vitro assays. Compound binding was calculated as a % inhibition of the binding of a radioactively labeled ligand specific for each target. Compound enzyme inhibition effect was calculated as a % inhibition of control enzyme activity.
Chain of Dopamine transporter (h) (Q01959 whole entry): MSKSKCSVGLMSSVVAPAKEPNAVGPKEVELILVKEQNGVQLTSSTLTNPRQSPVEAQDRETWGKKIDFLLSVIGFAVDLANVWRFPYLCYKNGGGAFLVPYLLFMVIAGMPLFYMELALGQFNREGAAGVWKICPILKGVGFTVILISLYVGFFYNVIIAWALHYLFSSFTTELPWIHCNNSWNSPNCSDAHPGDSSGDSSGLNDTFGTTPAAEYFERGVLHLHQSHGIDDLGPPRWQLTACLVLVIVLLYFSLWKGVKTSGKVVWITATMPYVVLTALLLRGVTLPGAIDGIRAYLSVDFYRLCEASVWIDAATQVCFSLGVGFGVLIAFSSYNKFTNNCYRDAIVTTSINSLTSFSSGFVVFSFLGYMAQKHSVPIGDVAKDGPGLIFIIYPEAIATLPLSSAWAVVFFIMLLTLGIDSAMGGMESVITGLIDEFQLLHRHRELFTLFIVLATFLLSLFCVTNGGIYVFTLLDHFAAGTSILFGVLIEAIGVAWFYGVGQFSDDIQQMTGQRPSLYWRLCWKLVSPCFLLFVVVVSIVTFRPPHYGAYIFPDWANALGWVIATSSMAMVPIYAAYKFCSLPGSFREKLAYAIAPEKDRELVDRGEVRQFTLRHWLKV
The general procedure is noted below. See Pristupa, Z. B. et al. (1994), Mol. Pharmacol., 45: 125-135. Minor variations to the experimental protocol described below may have occurred during the testing, but if so, they had no impact on the quality of the results obtained.

The target in assay [3] is H2 (h) (Homo sapiens (Human), UniProt P25021). The assay is described as follows: H2 (h) binding assay, [125I]APT. The note with it: Human recombinant (CHO cells); [125I]APT 0.075 nM; 120 min RT.
Chain of H2 (h) (P25021 whole entry): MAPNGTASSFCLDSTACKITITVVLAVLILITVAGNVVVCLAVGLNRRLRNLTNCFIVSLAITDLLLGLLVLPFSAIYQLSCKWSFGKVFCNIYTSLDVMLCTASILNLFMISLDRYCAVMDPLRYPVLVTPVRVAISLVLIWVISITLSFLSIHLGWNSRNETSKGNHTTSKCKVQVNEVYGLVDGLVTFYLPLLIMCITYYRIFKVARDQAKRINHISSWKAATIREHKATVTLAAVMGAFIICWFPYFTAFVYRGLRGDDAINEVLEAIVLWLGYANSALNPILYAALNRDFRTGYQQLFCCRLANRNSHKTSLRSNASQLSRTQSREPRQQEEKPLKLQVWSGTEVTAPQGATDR
Assay [4] addresses δ (DOP) (h) (Homo sapiens (Human), UniProt P41143). The assay is described as follows: δ (DOP) (h) binding assay, [3H]DADLE. The conditions noted are these: Human recombinant (Chem-1 (RBL) cells); [3H]DADLE 0.5 nM; 60 min RT. How it is done:
as §1
The general procedure is noted below. See Simonin, F. et al. (1994), Mol. Pharmacol., 46: 1015-1021. Minor variations to the experimental protocol described below may have occurred during the testing but if so, they had no impact on the quality of the results obtained.

For assay [5], the target named is kappa (h) (KOP) (Homo sapiens (Human), UniProt P41145). The experiment in a line: kappa (h) (KOP) binding assay, [3H]U69593. The conditions noted are these: Human recombinant (RBL cells); [3H]U69593 0.5 nM; 60 min RT. The method, then: as §1
Chain of kappa (h) (KOP) (P41145 whole entry): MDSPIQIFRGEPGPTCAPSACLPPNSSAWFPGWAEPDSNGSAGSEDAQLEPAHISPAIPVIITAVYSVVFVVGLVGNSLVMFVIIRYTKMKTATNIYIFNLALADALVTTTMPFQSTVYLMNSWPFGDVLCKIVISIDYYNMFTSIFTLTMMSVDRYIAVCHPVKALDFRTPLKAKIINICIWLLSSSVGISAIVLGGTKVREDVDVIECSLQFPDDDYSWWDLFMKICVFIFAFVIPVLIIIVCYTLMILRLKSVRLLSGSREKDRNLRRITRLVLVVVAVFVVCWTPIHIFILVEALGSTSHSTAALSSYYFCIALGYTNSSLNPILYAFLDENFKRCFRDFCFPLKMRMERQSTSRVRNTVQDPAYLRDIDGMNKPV
The general procedure is noted below. See Simonin, F. et al. (1995), Proc. Natl. Acad. Sci. U.S.A., 92: 7006-7010. Minor variations to the experimental protocol described below may have occurred during the testing but if so, they had no impact on the quality of the results obtained.

Assay [6] concerns the target 5-HT5a (h) (Homo sapiens (Human), UniProt P47898). The assay is described as follows: 5-HT5a (h) binding assay, [3H]LSD. The note with it: Human recombinant (HEK-293 cells); [3H]LSD 1.5 nM; 120 min 37° C. The method, then:
as §1
The general procedure is noted below. See Rees, S. et al. (1994), FEBS Lett., 355: 242-246. Minor variations to the experimental protocol described below may have occurred during the testing but if so, they had no impact on the quality of the results obtained.

Assay [7] has as its target Norepinephrine transporter (h) (Homo sapiens (Human), UniProt P23975). The experiment in a line: Norepinephrine transporter (h) binding assay, [3H]nisoxetine. The conditions noted are these: Human recombinant (CHO cells); [3H]nisoxetine 1 nM; 120 min 4° C. The method, then: as §1
The general procedure is noted below. See Pacholczyk, T. et al. (1991), Nature, 350: 350-354. Minor variations to the experimental protocol described below may have occurred during the testing but if so, they had no impact on the quality of the results obtained.

Chain of BTK(h) (Q06187 whole entry): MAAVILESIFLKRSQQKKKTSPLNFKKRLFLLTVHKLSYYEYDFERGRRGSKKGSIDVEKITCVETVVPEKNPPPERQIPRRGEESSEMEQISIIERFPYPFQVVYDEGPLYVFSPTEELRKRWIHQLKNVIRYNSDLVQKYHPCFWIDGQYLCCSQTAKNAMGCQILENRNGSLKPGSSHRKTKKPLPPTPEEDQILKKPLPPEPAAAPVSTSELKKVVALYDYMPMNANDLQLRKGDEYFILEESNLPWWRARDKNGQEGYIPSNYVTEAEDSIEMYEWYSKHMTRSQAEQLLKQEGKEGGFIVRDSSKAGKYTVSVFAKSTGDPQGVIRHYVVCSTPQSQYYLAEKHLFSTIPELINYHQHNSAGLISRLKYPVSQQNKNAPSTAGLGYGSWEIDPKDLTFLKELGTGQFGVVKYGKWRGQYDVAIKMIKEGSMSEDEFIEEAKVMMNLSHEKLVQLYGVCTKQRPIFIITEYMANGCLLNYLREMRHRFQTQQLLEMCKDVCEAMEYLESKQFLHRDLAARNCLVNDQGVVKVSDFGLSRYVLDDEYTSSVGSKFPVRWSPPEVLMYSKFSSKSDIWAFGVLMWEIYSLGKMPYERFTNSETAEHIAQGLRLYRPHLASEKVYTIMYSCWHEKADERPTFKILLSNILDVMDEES
Chain of δ (DOP) (h) (P41143 whole entry): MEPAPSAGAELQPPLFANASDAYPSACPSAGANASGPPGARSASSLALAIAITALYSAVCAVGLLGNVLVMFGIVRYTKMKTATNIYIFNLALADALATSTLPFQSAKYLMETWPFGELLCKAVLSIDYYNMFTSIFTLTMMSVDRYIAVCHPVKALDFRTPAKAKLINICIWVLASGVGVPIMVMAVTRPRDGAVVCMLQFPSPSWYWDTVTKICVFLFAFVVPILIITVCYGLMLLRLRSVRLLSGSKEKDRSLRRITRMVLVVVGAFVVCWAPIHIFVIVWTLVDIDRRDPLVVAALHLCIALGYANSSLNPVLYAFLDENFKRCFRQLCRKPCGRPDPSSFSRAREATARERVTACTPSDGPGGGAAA
Chain of 5-HT5a (h) (P47898 whole entry): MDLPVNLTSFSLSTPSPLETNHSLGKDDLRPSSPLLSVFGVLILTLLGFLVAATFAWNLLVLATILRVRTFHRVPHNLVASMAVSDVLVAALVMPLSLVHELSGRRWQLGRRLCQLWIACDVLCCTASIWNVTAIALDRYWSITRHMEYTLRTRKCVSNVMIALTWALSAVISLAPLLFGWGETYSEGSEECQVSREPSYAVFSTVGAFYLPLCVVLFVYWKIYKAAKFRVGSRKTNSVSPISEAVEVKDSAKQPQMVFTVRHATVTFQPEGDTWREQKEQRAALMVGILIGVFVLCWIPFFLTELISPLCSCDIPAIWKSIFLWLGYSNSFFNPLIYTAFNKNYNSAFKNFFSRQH
Chain of Norepinephrine transporter (h) (P23975 whole entry): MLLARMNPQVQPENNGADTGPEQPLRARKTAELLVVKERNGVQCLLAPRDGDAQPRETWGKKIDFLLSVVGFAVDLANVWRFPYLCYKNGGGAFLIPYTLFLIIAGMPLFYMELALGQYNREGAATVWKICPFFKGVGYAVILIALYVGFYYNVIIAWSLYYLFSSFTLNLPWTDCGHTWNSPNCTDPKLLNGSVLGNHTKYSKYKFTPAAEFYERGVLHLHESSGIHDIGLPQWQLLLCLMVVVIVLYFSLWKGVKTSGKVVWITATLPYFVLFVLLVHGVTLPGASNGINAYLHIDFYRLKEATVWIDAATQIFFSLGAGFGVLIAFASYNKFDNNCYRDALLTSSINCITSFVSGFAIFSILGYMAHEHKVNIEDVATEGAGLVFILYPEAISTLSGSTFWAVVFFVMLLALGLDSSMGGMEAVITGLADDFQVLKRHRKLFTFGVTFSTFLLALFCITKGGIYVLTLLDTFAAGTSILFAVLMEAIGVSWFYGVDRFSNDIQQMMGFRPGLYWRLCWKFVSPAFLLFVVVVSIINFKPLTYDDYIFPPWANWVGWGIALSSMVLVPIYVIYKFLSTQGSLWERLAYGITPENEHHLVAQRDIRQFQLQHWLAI

As for `Nc1nccc2c1n(-c1ccc(Oc3ccccc3)cc1)c(=O)n2[C@@H]1CCCN(C(=O)C(O)CO)C1` (stereo partly drawn) [Formula II, 4-amino-3-(4-phenoxyphenyl)-1-[(3R)-1-(2,3-dihydroxypropanoyl)-3-piperidyl]imidazo[4,5-c]pyridin-2-one], in assay [1], the midpoint of inhibition, the IC50, lay at 279 nM.

`Nc1nccc2c1n(-c1ccc(Oc3ccccc3)cc1)c(=O)n2[C@@H]1CCCNC1` [Formula III] returned a half-maximal inhibitory concentration (IC50) in assay [1] of 1380 nM. In addition, the “% inhibition of the binding of radioactively labeled ligand” value in assay [2] amounted to 96.2%; in assay [3], 56.7%; in assay [4], 56.7%; in assay [5] it was 54.6%; in assay [6], 56.1%; in assay [7], 66.7%.

On to `C=CC(=O)N1C[C@@H](O)C[C@@H](n2c(=O)n(-c3ccc(Oc4ccccc4)cc3)c3c(N)nccc32)C1` [Formula Ia, 4-amino-1-[(3R,5S)-5-hydroxy-1-prop-2-enoyl-3-piperidyl]-3-(4-phenoxyphenyl)imidazo[4,5-c]pyridin-2-one], for which, in assay [2], the “% inhibition of the binding of radioactively labeled ligand” value came out at 65%.

In assay [1], `C=CC(=O)N1C[C@H](O)C[C@@H](n2c(=O)n(-c3ccc(Oc4ccccc4)cc3)c3c(N)nccc32)C1` [Formula Ib, 4-amino-1-[(3R,5R)-5-hydroxy-1-prop-2-enoyl-3-piperidyl]-3-(4-phenoxyphenyl)imidazo[4,5-c]pyridin-2-one] returned an IC50 of 34 nM.
